How the values were obtained:
[1] = target: T1, progesterone receptor-LBD (Homo sapiens, UniProt P06401); assay: Progesterone Antagonist Screen, activated by control agonist R5020 (GENEBLAZER beta-lactamase reporter); format: cell-based; conditions: progesterone receptor-LBD-UAS-bla HEK 293T cells; control agonist R5020 at EC80; read-out: Progesterone Antagonist Inhibition IC50
T1 construct: host or cells: HEK 293T (progesterone receptor-LBD-UAS-bla)
T1 sequence (P06401 679-913 limits assumed): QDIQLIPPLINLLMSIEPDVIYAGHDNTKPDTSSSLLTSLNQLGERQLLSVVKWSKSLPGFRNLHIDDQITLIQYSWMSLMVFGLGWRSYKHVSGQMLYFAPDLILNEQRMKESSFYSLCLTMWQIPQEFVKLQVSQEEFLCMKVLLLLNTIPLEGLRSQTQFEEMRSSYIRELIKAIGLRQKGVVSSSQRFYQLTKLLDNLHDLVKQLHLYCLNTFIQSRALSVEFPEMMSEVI
Description: (§1) Determination of the agonist/antagonist nature of the test compounds was carried out using Invitrogen's SELECTSCREEN, a cell-based nuclear receptor profiling service which uses GENEBLAZER a beta-lactamase reporter technology. This assay uses a Beta-lactamase cDNA under transcriptional control of an Upstream Activator Sequence (UAS). The UAS is activated by the GAL4 transcription factor DNA binding domain (DBD), which is expressed as a fusion protein with the target receptor ligand binding domain (LBD). Upon ligand binding, the GAL4(DBD)-NR(LDB) binds to the UAS, which controls transcription of Beta-lactamase. Beta-lactamase cleaves a special engineered fluorescent substrate which results in a change in the measured fluorescence wavelength.
The generalized protocol used for the Progesterone Antagonist Screen, activated by control Agonist R5020 is as follows:
32 μL of cell suspension is added to the wells which is then pre-incubated at 37 C/5% CO2 in a humidified incubator with test compounds and control antagonist titration for 30 minutes. 4 μL of a 10× control agonist (see above) at the predetermined EC80 concentration is added to wells containing the control antagonist or test compounds. The plate is incubated for 16-24 hours at 37 C/5% CO2 in a humidified incubator. 8 μl of 1 μM Substrate Loading Solution is added to each well and the plate is incubated for 2 hours at room temperature. The plate is then read on a fluorescence plate reader (Tecan Safire).

[2] = target: T2, glucocorticoid receptor-LBD (Homo sapiens, UniProt P04150); assay: Glucocorticoid Antagonist Screen activated by control agonist Dexamethasone (GENEBLAZER beta-lactamase reporter); format: cell-based; conditions: glucocorticoid receptor-LBD-UAS-bla HEK 293T cells, read-out: Glucocorticoid Antagonist Inhibition IC50
T2 construct: host or cells: HEK 293T (glucocorticoid receptor-LBD-UAS-bla)
T2 sequence (P04150 524-758 limits assumed): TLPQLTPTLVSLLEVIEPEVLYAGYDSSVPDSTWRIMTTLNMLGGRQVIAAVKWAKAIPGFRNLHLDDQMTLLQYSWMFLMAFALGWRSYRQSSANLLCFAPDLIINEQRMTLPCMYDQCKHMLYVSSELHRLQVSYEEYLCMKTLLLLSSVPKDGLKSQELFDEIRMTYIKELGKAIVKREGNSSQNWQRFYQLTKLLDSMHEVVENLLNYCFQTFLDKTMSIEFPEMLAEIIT
Description: as §1

[3] = target: T1, progesterone receptor-LBD; assay: Progesterone Agonist screen (SELECTSCREEN GENEBLAZER beta-lactamase reporter); format: cell-based; conditions: progesterone receptor-LBD-UAS-bla HEK 293T cells; read-out: Progesterone Agonist Activation IC50
Description: as §1
The plate is incubated for 16-24 hours at 37° C./5% CO2 in a humidified incubator. […] The plate is then read on a fluorescence plate reader (Tecan Safire).

[4] = tested on: progesterone receptor positive breast cancer; conditions: rat model, recent study; cited from earlier work

SMILES | IC50 [1] [nM] | further results
CC(=O)c1ccc(C2CC3(C)C(CCC34OCCC4=C(F)F)C3CCC4=CC(=O)CCC4=C23)cc1 (stereo not drawn) [Compound 1a, 21,21-difluoro-11β-(4′-acetyl)phenyl-17,23-epoxy-19,24-dinor-17α-chola-4,9,20-triene] | 0.265 | IC50 [2]: > 10 nM; IC50 [3]: > 10 nM
CN(C)c1ccc(C2CC3(C)C(CCC34OCCC4=C(F)F)C3CCC4=CC(=O)CCC4=C23)cc1 (stereo not drawn) [Compound 1b, 21,21-difluoro-11β-[4′-(dimethylamino)phenyl]-17,23-epoxy-19,24-dinor-17α-chola-4,9,20-triene] | 0.178 | –
COc1ccc(C2CC3(C)C(CCC34OCCC4=C(F)F)C3CCC4=CC(=O)CCC4=C23)cc1 (stereo not drawn) [Compound 1c, 21,21-difluoro-11β-(4′-methoxyphenyl)-17,23-epoxy-19,24-dinor-17α-chola-4,9,20-triene] | 0.344 | –
C=C(C)c1ccc(C2CC3(C)C(CCC34OCCC4=C(F)F)C3CCC4=CC(=O)CCC4=C23)cc1 (stereo not drawn) [Compound 1d, 21,21-difluoro-11β-(4′-isopropenylphenyl)-17,23-epoxy-19,24-dinor-17α-chola-4,9,20-triene] | 0.413 | –
CC12CC(c3ccc(-c4cccnc4)cc3)C3=C4CCC(=O)C=C4CCC3C1CCC21OCCC1=C(F)F (stereo not drawn) [Compound 1e, 21,21-difluoro-11β-[4′-(3′-pyridyl)phenyl]-17,23-epoxy-19,24-dinor-17α-chola-4,9,20-triene] | 0.28 | –
CC12CC(c3ccc(-c4ccoc4)cc3)C3=C4CCC(=O)C=C4CCC3C1CCC21OCCC1=C(F)F (stereo not shown) [Compound 1f] | 0.864 | –
COCC(=O)[C@@]1(OC(C)=O)CC[C@H]2[C@@H]3CCC4=CC(=O)CCC4=C3[C@@H](c3ccc(N(C)C)cc3)C[C@@]21C [PROELLEX] | – | development of new tumors [4]: decrease in the development of new tumors; tumor size [4]: regression of tumor size
CC(=O)c1ccc([C@H]2C[C@@]3(C)[C@@H](CC[C@@]3(O)C(F)(F)C(F)(F)F)[C@@H]3CCC4=CC(=O)CCC4=C32)cc1 [ZK 230211, Lonaprisan, reference compound] | 0.798 | IC50 [2]: > 10 nM; IC50 [3]: > 10 nM
